From article PMC3373380 (BMC Pharmacology, 2012) come the findings set out here.

Molecules are shown by their SMILES.

The target in assay [1] is T1, cynomolgus monkey DPP4 (UniProt A0A075TEP6).
T1 construct: made in house
Nature of the assay: Steady-state inhibition of isolated cloned DPP4 at 37°C (gly-pro-pNA). The format is biochemical. The settings on record: mean ± SD (n). The procedure: (§1) All solutions were preheated to 37°C.
(§2) DPP8 and DPP9 were tested under identical conditions.

Assay [2] addresses T2, human DPP8 (Homo sapiens, UniProt Q6V1X1).
T2 construct: made in house
Description: Steady-state inhibition of isolated cloned DPP8 at 37°C (gly-pro-pNA). The format is biochemical. The procedure: (§3) All solutions were preheated to 37°C. Inhibitors were preincubated with enzyme for 40 minutes prior to assay initiation. […] Softmax Pro software from Molecular Devices (Sunnyvale, CA) was used to obtain the initial slope of the reaction in each well, and the fits were inspected to insure that the reactions were linear to a correlation coefficient of 0.99. An Excel template with XLFit (IDBS, Guildford, U.K.) was used for determination of the IC50 for inhibition at each substrate concentration. […] Therefore, IC50 was then converted to Ki assuming competitive inhibition according to:
(§4) The calculated Ki values for competitive inhibition at each substrate concentration were averaged and reported. DPP8 and DPP9 were tested under identical conditions. The in vitro assays were also used to determine substrate Km, by varying substrate concentration across an appropriate range. Km was calculated using GraFit software (Erithacus, Surrey U.K.)

The target in assay [3] is cynomolgus monkey DPP9 (Macaca fascicularis, UniProt A0A2K5TQ54). Nature of the assay: Steady-state inhibition of isolated cloned DPP9 at 37°C (gly-pro-pNA). The format is biochemical. The settings on record: mean ± SD (n). The procedure:
as §1, §2

The target of assay [4] is T3, human DPP9 (Homo sapiens, UniProt Q86TI2).
T3 construct: made in house
T3 sequence (Q86TI2 whole entry): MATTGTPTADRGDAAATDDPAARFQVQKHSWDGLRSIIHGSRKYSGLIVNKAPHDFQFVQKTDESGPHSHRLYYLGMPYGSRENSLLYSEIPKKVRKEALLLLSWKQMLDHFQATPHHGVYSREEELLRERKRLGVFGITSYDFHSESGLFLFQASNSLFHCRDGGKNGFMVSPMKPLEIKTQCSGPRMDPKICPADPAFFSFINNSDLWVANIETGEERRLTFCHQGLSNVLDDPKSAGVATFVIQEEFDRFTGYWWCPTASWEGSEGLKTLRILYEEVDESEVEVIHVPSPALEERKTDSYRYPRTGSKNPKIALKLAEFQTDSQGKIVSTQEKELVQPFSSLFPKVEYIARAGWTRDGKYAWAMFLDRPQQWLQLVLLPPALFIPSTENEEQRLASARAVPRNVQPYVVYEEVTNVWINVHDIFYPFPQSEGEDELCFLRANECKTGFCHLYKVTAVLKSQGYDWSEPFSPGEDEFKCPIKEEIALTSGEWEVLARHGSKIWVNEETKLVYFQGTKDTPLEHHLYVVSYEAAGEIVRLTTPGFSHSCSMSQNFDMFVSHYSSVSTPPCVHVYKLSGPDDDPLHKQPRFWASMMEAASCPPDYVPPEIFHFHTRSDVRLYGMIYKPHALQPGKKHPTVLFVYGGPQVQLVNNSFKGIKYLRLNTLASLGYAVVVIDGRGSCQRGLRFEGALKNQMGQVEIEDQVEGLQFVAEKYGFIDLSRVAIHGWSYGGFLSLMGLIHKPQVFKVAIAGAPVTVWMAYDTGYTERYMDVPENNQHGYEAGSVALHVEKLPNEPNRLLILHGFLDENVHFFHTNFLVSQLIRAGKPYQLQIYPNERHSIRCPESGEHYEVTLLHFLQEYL
The assay is described as above. The format is biochemical. The procedure: as §3, §4

Assay [5] has as its target cynomolgus monkey DPP8 (Macaca fascicularis, UniProt A0A2K5VHB7). Description: Steady-state inhibition of isolated cloned DPP8 at 37°C (gly-pro-pNA). The format is biochemical. The settings on record: mean ± SD (n). The procedure: as §1, §2
Assay [6] has as its system plasma DPP activity. Description: Cynomolgus monkey ex vivo plasma DPP inhibition, ala-pro-AFC assay. Conditions: cynomolgus monkeys, single oral doses, 24 hours post dose. The format is in vivo. The procedure:
(§5) Male and female cynomolgus monkeys (Charles River BRF, Houston, TX), were housed in an AAALAC-accredited facility (on a 12-hour light/dark cycle) in stainless-steel cages. They had access to purified tap water ad libitum and were fed Harlan Diet 2050 C (Certified 20% protein primate diet). […]. Doses were administered once weekly using a crossover design such that no monkeys received the same dose twice. For the ex vivo cynomolgus monkey assays, blood samples (approximately 0.5 ml) were collected prior to dosing and 1, 2, 4, 6, 8, and 24 hours post dosing in tubes containing K2EDTA. Tubes were inverted several times to ensure mixing, and placed on ice. Samples were centrifuged at 5000 rpm for 10 minutes at 4°C for plasma isolation. Plasma was stored at -20°C until analyzed for DPP activity. No difference in DPP inhibition was noted between males and females and so data were combined for analyses.
(§6) This procedure produced a 3-fold dilution of plasma.

The target in assay [7] is cynomolgus monkey plasma DPP activity (Macaca fascicularis, UniProt A0A2K5VXJ1). Nature of the assay: Ala-pro-AFC plasma DPP inhibition assay in vitro. The format is biochemical.
Sequence of cynomolgus monkey plasma DPP activity (A0A2K5VXJ1 39-766): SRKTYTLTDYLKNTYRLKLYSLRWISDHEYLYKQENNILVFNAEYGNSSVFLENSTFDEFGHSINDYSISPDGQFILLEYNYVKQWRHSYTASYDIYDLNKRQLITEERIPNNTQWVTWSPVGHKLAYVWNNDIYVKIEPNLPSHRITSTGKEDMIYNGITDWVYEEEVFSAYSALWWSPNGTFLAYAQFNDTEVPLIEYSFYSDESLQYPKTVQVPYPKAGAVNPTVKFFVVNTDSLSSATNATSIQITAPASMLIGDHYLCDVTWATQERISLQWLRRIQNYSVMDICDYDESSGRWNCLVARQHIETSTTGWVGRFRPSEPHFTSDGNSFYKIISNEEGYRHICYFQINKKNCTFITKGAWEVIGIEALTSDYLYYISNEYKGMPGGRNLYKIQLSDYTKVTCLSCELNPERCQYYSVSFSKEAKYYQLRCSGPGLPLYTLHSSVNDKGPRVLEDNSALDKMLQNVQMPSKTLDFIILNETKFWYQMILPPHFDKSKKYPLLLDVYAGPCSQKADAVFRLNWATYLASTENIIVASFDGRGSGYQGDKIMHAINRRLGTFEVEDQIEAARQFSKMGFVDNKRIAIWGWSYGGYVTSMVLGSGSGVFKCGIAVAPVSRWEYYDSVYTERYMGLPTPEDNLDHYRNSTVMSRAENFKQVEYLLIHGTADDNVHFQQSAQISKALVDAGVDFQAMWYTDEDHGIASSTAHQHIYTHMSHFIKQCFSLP
From the text: as §6

The test system of assay [8] is plasma DPP activity. Nature of the assay: Cynomolgus monkey ex vivo plasma DPP inhibition, gly-pro-pNA assay. The format is in vivo. Conditions: cynomolgus monkeys, single oral doses, 24 hours post dose, same samples. The procedure:
as §5
This assay was reported by Merck as used in their clinical trials, using gly-pro-pNA as substrate. […] Activity, the rate of release of free pNA from the pseudo-substrate, was assayed at 30°C, using a Spectramax 340 plate reader ([…]) with rate determining software. Absorbance at 390 nm was measured. Results were expressed as arbitrary units because standard pNA curves were not run for all experiments. The extent of DPP inhibition and IC50 values were calculated as described above.

[9] abbreviates: human, 37°C, gly-pro-pNA, mean ± SD (n).

Sequence of cynomolgus monkey DPP9 (A0A2K5TQ54 156-951): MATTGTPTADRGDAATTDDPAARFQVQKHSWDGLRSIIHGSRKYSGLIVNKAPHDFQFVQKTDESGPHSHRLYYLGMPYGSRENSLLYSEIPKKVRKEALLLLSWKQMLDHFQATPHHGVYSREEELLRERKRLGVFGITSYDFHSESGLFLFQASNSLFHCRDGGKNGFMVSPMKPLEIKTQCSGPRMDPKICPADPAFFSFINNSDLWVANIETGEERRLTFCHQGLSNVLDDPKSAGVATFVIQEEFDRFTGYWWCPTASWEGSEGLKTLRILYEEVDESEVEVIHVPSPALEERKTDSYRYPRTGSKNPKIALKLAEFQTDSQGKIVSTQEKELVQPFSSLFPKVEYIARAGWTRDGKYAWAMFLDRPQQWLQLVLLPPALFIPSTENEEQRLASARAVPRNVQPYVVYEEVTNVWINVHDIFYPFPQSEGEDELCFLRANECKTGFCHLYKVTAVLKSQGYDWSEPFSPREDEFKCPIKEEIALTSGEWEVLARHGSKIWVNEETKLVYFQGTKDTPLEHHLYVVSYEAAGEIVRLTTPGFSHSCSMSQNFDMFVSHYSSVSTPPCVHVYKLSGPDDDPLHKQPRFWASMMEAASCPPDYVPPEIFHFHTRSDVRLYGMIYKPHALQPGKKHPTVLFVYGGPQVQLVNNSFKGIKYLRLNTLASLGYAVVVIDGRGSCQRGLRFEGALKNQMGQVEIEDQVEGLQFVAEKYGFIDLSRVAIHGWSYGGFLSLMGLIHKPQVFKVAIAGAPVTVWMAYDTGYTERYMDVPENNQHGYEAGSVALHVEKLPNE
Sequence of cynomolgus monkey DPP8 (A0A2K5VHB7 1-898): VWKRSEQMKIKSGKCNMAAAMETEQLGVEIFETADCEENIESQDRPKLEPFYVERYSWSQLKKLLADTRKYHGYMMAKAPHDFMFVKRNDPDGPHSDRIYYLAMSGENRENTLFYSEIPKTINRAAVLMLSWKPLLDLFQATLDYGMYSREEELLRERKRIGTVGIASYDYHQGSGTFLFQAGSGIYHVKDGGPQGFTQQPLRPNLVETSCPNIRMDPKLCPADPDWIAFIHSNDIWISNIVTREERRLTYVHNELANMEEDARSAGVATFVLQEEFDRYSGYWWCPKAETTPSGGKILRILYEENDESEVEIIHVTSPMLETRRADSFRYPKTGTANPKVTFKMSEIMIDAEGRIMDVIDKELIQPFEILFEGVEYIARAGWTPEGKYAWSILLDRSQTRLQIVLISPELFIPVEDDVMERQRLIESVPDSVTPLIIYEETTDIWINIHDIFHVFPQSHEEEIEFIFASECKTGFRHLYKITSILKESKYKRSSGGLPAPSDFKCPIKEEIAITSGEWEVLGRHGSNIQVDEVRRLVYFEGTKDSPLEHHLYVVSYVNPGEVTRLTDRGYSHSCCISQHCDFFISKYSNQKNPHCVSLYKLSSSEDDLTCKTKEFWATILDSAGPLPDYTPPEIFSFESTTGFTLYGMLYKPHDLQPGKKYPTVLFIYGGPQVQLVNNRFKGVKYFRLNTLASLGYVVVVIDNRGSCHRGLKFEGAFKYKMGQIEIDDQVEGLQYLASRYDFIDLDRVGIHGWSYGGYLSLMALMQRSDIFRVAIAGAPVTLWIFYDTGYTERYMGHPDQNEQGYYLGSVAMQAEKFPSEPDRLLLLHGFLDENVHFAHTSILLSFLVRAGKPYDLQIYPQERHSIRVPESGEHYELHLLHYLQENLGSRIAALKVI
T2 sequence (Q6V1X1 whole entry): as the sequence (A0A2K5VHB7 1-898) above, with V1M, M357I, S605P, L609P, D823N counted along it
T1 sequence (A0A075TEP6 1-766): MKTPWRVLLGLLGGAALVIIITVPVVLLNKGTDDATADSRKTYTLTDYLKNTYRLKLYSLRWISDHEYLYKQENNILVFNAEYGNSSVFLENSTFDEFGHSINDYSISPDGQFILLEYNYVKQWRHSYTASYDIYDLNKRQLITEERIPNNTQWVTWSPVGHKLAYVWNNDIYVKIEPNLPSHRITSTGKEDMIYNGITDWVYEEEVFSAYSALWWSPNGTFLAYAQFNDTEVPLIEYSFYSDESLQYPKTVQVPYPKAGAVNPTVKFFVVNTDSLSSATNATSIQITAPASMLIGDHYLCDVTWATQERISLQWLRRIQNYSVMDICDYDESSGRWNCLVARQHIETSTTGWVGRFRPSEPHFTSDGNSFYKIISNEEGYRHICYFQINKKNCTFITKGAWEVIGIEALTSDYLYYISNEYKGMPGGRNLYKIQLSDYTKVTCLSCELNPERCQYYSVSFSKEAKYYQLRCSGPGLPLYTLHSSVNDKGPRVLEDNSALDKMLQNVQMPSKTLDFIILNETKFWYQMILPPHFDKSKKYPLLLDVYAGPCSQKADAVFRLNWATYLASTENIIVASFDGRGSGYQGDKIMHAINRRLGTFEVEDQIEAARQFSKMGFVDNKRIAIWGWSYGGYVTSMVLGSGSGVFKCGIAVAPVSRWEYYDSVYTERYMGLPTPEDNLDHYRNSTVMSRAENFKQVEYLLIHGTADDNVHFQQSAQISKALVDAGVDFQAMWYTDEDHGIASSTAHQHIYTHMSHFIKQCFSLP

As to `N#C[C@@H]1C[C@@H]2C[C@@H]2N1C(=O)[C@@H](N)C12CC3CC(O)(CC(O)(C3)C1)C2` [5-hydroxysaxagliptin], the Ki (as a rule, a dissociation constant, usually derived from enzyme kinetics or from competition with a known ligand) in assay [1] was 2.9 ± 1.1 nM; in assay [2] (setting [9]) it was 2500 ± 727 nM; in assay [3], 323 ± 60 nM; in assay [4] (setting [9]), 423 ± 64 nM; in assay [5], 2060 ± 658 nM. In addition, the “slow binding kinetics to DPP8” value in assay [2] is reported as “Neither saxagliptin nor 5-hydroxysaxagliptin exhibited slow binding kinetics”. Besides, the “slow binding kinetics to DPP9” value in assay [4] is “Neither saxagliptin nor 5-hydroxysaxagliptin exhibited slow binding kinetics”.
For the compound `N#C[C@@H]1C[C@@H]2C[C@@H]2N1C(=O)[C@@H](N)C12CC3CC(CC(O)(C3)C1)C2` [Saxagliptin, (1 S,3 S,5 S)-2-[(2 S)-2-Amino-2-(3-hydroxytricyclo[3.3.1.1^3,7]dec-1-yl)acetyl]-2-azabicyclo[3.1.0]hexane-3-carbonitrile, monohydrate], the “plasma DPP inhibition ex vivo” value in assay [6] is recorded as “close to maximal inhibition of the inhibitable plasma DPP activity at its highest doses”. Further, the Ki amounted to 61 ± 5 nM in assay [3] and 390 ± 82 nM in assay [5].
Consider `N[C@@H](CC(=O)N1CCn2c(nnc2C(F)(F)F)C1)Cc1cc(F)c(F)cc1F` [Sitagliptin, reference compound], for which the “plasma DPP inhibition ex vivo” value was “no effect on plasma DPP activity at any of the doses” in assay [6]; “statistically significant inhibition of plasma DPP activity at 3, 10 and 40 mg/kg doses” in assay [8]. Further, in assay [7], the “increase of IC50 in the ala-pro-AFC assay compared to the gly-pro-pNA assay” value was 26 fold. The results for the Ki in assay [3] and in assay [5] were 65800 ± 7970 nM and 21900 ± 17500 nM, respectively.
In assay [3], `N#C[C@@H]1CCCN1C(=O)CNC12CC3CC(CC(O)(C3)C1)C2` [Vildagliptin, reference compound] displayed a Ki of 125 ± 39 nM.
